In paper PMC6934184, “Selective DNA-PKcs inhibition extends the therapeutic index of localized radiotherapy and chemotherapy” (The Journal of Clinical Investigation, 2019):

Molecular target: T1, DYRK4 (Homo sapiens, UniProt Q9NR20)
T1 construct: purchased Thermo Fisher Scientific (Life Technologies) SelectScreen
Experiment: SelectScreen Z'LYTE
Format: biochemical
Procedure, shortened: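 Compound tested in SelectScreen activity assays, Z'LYTE for CSF1R, CDK1/cyclin B and MAP2K6 and Adapta for CAMK1. ATP for CAMK1 was listed as 10, and Km app was used for CSF1R. Results are expressed in percent.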

T1 sequence (Q9NR20 whole entry): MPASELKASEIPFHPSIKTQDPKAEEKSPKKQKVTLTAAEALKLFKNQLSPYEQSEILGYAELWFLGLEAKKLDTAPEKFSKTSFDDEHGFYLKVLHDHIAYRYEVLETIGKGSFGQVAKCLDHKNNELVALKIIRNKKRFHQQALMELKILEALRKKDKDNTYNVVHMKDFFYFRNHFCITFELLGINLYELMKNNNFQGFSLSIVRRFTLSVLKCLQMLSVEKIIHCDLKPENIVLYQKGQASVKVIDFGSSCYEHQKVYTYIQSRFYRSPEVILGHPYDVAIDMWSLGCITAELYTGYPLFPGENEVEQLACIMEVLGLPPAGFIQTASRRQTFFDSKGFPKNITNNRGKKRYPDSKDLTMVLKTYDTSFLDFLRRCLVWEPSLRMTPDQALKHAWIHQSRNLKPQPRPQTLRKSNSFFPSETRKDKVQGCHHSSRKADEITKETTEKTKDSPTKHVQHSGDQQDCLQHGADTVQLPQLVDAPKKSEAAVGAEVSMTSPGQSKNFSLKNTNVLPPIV

CN(C(=O)CN1CCOCC1)c1ccc2sc3c(-c4cccc5c(=O)cc(N6CC7CCC(C6)O7)oc45)cccc3c2c1 [NU5455]
inhibition at 1 µM: 0.3%
